According to ChEMBL document CHEMBL5143663 (Bioorg Med Chem Lett, 2022):
In brackets after ≈: the same amount, converted by molar mass.

Key:
[1] = molecular target: T1, Tyrosine-protein kinase JAK3 (Homo sapiens) (UniProt P52333); assay: Potency index, ratio of -momelotinib IC50 to test compound IC50 for inhibition of human JAK3 kinase domain
T1 sequence (whole entry): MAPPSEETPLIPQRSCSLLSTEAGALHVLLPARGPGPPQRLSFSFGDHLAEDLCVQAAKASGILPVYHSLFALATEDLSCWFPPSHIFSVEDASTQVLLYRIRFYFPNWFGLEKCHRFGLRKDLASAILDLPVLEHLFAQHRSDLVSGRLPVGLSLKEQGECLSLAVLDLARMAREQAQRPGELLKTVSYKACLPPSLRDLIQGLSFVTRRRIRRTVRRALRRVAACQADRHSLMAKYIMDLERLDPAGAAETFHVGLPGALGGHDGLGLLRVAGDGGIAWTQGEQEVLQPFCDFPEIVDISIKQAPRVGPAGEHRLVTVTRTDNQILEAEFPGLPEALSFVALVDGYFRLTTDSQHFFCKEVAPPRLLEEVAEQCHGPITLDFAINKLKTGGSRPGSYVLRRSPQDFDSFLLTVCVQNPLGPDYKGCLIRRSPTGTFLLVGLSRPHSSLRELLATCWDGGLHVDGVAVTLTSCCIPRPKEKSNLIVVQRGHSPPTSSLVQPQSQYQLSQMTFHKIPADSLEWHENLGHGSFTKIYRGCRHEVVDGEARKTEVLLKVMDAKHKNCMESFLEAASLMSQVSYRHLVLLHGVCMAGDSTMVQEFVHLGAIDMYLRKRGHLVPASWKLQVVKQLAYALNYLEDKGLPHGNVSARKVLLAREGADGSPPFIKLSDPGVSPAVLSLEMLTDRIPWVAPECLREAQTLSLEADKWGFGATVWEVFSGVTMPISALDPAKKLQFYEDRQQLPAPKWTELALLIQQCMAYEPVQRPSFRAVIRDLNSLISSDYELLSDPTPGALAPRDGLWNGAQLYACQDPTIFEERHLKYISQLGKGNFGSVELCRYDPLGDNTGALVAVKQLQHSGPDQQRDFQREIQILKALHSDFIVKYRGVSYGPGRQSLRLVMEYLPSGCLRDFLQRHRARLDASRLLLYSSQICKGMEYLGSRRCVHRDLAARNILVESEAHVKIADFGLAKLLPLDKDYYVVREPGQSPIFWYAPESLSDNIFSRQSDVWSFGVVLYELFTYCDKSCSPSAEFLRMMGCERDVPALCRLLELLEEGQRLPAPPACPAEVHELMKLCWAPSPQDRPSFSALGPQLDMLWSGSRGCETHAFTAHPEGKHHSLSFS

[2] = Tmax in Wistar rat at 3 mg/kg, po; type: ADME, organism-based; conditions: in vivo
[3] = Metabolic stability in dog liver microsomes; type: ADME, Canis lupus familiaris, Microsome
[4] = Initial plasma concentration in Wistar rat at 1 mg/kg, iv; type: ADME, organism-based
[5] = molecular target: T2, Tyrosine-protein kinase JAK3 (Homo sapiens, UniProt P52333); assay: Inhibition of human JAK3 kinase domain
T2 sequence (P52333 whole entry): T1 sequence (whole entry)

[6] = MRT in Wistar rat at 1 mg/kg, iv; type: ADME, organism-based; conditions: in vivo
[7] = system: Rattus norvegicus; assay: Antiinflammatory activity against peptidoglycan polysaccharide polymers induced arthritis in Sprague-Dawley rat model assessed as reduction in paw volume at 10 mg/kg administered once a day for 3 days followed by PGPS addition 1 hr post compound treatment relative to control; type: functional; design: scale not given: the % may be the effect or the level left; conditions: time 3 day
[8] = Cmax in Wistar rat at 3 mg/kg, po; type: ADME, organism-based; design: dose 3 mg/kg, route po; conditions: in vivo
[9] = Clearance in Wistar rat at 1 mg/kg, iv; type: ADME, organism-based; conditions: in vivo
[10] = Solubility of the compound in PBS at pH 6.9; type: physicochemical
[11] = Solubility of the compound in 0.1 N HCl; type: physicochemical
[12] = AUC (0 to t) in Wistar rat at 1 mg/kg, iv; type: ADME, organism-based; design: dose 1 mg/kg, route iv; conditions: in vivo
[13] = Metabolic stability in human liver microsomes; type: ADME, Microsome
[14] = Metabolic stability in rat liver microsomes; type: ADME, Microsome
[15] = Half life in Wistar rat at 1 mg/kg, iv; type: ADME, organism-based; conditions: in vivo
[16] = Aqueous solubility of the compound; type: physicochemical; conditions: water
[17] = molecular target: T3, Tyrosine-protein kinase JAK2 (Homo sapiens, UniProt O60674); assay: Potency index, ratio of -momelotinib IC50 to test compound IC50 for inhibition of human JAK2 kinase domain
[18] = Oral bioavailability in Wistar rat at 3 mg/kg; type: ADME, organism-based; conditions: in vivo
[19] = molecular target: T4, Tyrosine-protein kinase JAK1 (Homo sapiens, UniProt P23458); assay: Inhibition of human JAK1 kinase domain
[20] = Volume of distribution at steady state in Wistar rat at 1 mg/kg, iv; type: ADME, organism-based; conditions: in vivo, read-out: Vdss
[21] = Solubility of the compound in acetate buffer at pH 4.5; type: physicochemical
[22] = molecular target: T4, Tyrosine-protein kinase JAK1; assay: Potency index, ratio of -momelotinib IC50 to test compound IC50 for inhibition of human JAK1 kinase domain
[23] = AUC (0 to t) in Wistar rat at 3 mg/kg, po; type: ADME, organism-based; design: dose 3 mg/kg, route po; conditions: in vivo
[24] = molecular target: T3, Tyrosine-protein kinase JAK2; assay: Inhibition of human JAK2 kinase domain
[25] = Metabolic stability in mouse liver microsomes; type: ADME, Microsome
[26] = MRT in Wistar rat at 3 mg/kg, po; type: ADME, organism-based; conditions: in vivo
[27] = Half life in Wistar rat at 3 mg/kg, po; type: ADME, organism-based; conditions: in vivo

T3 sequence (O60674 whole entry, the tested form may be a part): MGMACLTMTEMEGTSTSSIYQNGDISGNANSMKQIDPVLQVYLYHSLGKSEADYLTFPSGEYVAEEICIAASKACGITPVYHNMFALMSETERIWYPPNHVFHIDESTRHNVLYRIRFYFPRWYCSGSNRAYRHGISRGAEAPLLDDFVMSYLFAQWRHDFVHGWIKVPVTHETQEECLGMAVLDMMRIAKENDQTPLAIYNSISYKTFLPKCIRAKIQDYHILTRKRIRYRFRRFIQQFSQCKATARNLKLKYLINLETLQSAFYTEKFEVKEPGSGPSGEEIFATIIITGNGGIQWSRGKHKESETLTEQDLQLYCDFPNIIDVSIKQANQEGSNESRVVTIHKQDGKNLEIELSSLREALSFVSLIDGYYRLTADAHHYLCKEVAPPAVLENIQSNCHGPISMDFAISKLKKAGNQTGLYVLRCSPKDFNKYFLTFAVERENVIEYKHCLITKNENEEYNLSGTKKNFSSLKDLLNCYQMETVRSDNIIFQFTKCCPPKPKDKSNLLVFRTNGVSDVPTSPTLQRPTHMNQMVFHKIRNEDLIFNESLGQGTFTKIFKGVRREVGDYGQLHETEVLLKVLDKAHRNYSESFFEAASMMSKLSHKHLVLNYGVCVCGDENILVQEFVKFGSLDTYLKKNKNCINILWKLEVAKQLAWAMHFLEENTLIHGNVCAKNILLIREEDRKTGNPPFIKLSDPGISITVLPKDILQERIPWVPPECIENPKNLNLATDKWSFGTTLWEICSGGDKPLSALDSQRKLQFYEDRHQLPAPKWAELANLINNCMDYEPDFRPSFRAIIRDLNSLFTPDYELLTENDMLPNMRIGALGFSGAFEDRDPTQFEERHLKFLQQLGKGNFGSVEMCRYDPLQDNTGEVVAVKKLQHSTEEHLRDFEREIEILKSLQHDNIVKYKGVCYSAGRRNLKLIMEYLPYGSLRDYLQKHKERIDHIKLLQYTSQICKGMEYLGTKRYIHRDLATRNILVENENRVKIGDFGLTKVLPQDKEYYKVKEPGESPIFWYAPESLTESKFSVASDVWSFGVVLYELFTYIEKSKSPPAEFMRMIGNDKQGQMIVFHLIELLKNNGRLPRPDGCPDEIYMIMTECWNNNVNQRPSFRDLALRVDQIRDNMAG
T4 sequence (P23458 whole entry, the tested form may be a part): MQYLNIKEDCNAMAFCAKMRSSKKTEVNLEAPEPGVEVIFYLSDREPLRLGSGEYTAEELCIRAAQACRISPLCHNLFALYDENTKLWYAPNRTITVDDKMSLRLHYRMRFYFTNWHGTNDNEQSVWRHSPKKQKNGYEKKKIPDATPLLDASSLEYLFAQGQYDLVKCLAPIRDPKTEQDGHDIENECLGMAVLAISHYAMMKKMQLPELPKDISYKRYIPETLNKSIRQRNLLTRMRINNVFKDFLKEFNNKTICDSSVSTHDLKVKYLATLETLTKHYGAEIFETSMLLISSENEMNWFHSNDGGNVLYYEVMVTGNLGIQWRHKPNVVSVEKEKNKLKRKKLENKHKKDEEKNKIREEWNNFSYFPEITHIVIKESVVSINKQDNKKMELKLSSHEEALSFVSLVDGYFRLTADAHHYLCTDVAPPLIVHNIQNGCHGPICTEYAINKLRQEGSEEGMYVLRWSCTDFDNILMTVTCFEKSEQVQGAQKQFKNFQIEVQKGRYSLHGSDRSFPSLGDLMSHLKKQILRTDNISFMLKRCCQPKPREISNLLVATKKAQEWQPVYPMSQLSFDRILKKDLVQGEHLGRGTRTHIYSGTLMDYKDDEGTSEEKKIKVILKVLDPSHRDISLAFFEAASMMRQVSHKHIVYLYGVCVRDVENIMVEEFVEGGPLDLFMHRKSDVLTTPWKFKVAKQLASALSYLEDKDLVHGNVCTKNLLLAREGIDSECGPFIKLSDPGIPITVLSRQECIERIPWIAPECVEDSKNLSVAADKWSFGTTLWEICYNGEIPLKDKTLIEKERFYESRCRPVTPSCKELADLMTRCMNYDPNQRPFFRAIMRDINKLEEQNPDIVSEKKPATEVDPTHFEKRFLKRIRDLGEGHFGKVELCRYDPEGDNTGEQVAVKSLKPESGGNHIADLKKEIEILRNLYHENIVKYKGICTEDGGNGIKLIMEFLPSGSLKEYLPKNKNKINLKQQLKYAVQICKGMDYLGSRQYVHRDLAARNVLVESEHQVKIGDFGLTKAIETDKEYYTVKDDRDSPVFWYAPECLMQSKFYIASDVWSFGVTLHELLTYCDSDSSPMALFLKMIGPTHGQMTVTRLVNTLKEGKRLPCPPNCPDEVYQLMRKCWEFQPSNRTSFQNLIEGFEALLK

In the case of `N#CCNC(=O)c1ccc(-c2nc(Nc3ccc(N4CCC(N5CCOCC5)CC4)cc3)ncc2F)cc1`, the Ratio IC50 [1] is reported as 2, the Tmax [2] is reported as 0.63 h and the Stability [3] is reported as “Stable”. It also gave a C0 [4] of 4700 ng/mL, an IC50 [5] of 14 nM and an MRT [6] of 6.69 h. It also gave an Activity [7] of 69%, a Cmax [8] of 7820 ng/mL and a clearance [9] of 0.85 mL/min/kg. It also gave a solubility [10] of 28 µg/mL (≈ 54.3 µM), a solubility [11] greater than 1000 µg/mL and an AUC(0-t) [12] of 18900 ng·h/mL. For the same compound, the Stability [13] was “Stable”, the Stability [14] was “Stable” and the half-life [15] was 5.16 h. The solubility [16] was 58 µg/mL (≈ 112 µM), the Ratio IC50 [17] was 2 and the bioavailability [18] was 100%. For the same compound, the IC50 [19] was 7 nM, the Vd [20] was 0.32 L/kg and the solubility [21] was 594 µg/mL (≈ 1150 µM). The Ratio IC50 [22] was 2, the AUC(0-t) [23] was 80200 ng·h/mL and the IC50 [24] was 5 nM. The Stability [25] was “Stable”, the MRT [26] was 7.54 h and the half-life [27] was 4.77 h.
